≈ marks a conversion by molar mass, not a printed value. Where a name gives a salt, the structure may show the parent alone. Read-outs that look alike come from different tables or passages of the source.
Columns and labels:
CRF1 = target: T1, CRF1 (Homo sapiens, UniProt P34998); assay: CRF1 binding (Ki); settings: Tertiary; read-out: CRF1 Ki
T1 sequence (P34998 24-415): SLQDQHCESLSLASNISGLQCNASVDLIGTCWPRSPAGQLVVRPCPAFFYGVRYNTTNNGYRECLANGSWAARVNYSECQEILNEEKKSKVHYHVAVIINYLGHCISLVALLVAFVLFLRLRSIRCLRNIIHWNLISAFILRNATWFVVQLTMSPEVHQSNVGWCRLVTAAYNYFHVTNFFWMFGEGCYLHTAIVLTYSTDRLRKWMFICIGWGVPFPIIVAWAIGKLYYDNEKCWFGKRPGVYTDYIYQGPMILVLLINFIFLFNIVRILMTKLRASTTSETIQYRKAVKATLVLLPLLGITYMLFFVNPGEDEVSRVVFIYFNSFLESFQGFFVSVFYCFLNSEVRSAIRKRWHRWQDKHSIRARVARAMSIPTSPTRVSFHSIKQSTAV

SH-SY5Y cells [1] = assay: Primary screen in SH-SY5Y cells (tau, p-tau); format: cell-based; settings: for Tau % / p-Tau (%): Primary (SH-SY5Y)
Experimental: (§1) As described below, in vitro studies were performed using SHSY-5Y cells. These cells are a useful neurological model that differentiate into cells with morphological and biochemical characteristics of mature neurons including mature isoforms of tau.
However, J04 did lower p-tau to the same level as J03 and significant may not have been reached due to low N #.

Solubility in DMSO = format: physicochemical
SH-SY5Y cells [2] = assay: Secondary screen in SH-SY5Y cells with CRF stimulation (tau, p-tau, sAPPα); format: cell-based
Experimental: as §1
In an initial study, SHSY-5Y cells were cultured without serum to induce differentiation and increase tau expression. […] The increases were proportional and both were about 50%. J03 (FIG. 4A) reduced the CRF-induced tau increases more than the p-tau increases. The increase in p-tau with CRF was expected, but the increase in tau less predictable as CRF reduces neuronal differentiation (see Chen et al. (2004) Proc. Natl. Acad. Sci. USA, 101(44): 15782-15787), however, it can increase tau accumulation.

PAMPA = format: in vitro ADME; settings: Tertiary
[3] = In vivo pharmacokinetics, brain and plasma levels; parameters: species or system mouse
[4] = organic solvent or mixture, read-out: Solubility
[5] = Secondary (SH-Sy5Y, CRF stimulation)

Compound | Ki (CRF1) [µM] | Tau % (SH-SY5Y cells [1]) | solubility (Solubility in DMSO; [4]) [mM] | sAPPα (%) (SH-SY5Y cells [2]; [5]) | PAMPA (PAMPA) | also measured
CCC(COC)n1nnc2c(Nc3ccc(F)cc3C)nc(C)nc21 (centres unmarked) [Compound J06] | > 1 | Unchanged | ~10 (≈ 3440 µg/mL) |  |  | p-Tau (%) (SH-SY5Y cells [2]; [5]): Unchanged
CCC(COC)n1nnc2c(Nc3ccc(Cl)cc3C)nc(C)nc21 (centres unmarked) [Compound J08] | 0.015 | Unchanged | ~10 (≈ 3610 µg/mL) | Unchanged | 1.27 | 
CCC(COC)n1nnc2c(Nc3ccc(F)cc3F)nc(C)nc21 (centres unmarked) [Compound J07] | > 1 |  | ~10 (≈ 3480 µg/mL) |  | 0.72 | 
CCC(COC)n1nnc2c(N3CCCC3)nc(C)nc21 (centres unmarked) [Compound J10] |  | Unchanged | ~10 (≈ 2900 µg/mL) |  |  | p-Tau (%) (SH-SY5Y cells [1]): Unchanged
CCC(COC)n1nnc2c(N(C)C3CC3)nc(C)nc21 (centres unmarked) [Compound J11] | > 1 | Unchanged | ~10 (≈ 2900 µg/mL) | Unchanged | 0.94 | 
CCC(COC)n1nnc2c(Nc3ccc(C)cc3C)nc(C)nc21 (centres unmarked) [Compound J05] |  |  | ~10 (≈ 3400 µg/mL) |  | 0.99 | 
CCC(COC)Nc1nc(C)nc2c1nnn2-c1ccc(OC)cc1C (centres unmarked) [J17 HCl] |  | Unchanged |  |  |  | p-Tau (%) (SH-SY5Y cells [1]): Unchanged; solubility (Solubility in DMSO): ≈10 mM
CCC(COC)Nc1nc(C)nc2c1nnn2-c1ccc(Cl)cc1C (centres unmarked) [Compound J19, 3-(4-Chloro-2-methylphenyl)-N-(1-methoxybutan-2-yl)-5-methyl-3H-[1,2,3]triazolo[4,5-d]pyrimidin-7-amine] |  |  | ~10 (≈ 3610 µg/mL) | Unchanged | 0.75 | p-tau/tau ratio (SH-SY5Y cells [1]; FIG. 29): unchanged; p-tau (SH-SY5Y cells [1]; SH-SY5Y cells, no CRF): decreased; tau (SH-SY5Y cells [1]; SH-SY5Y cells, no CRF): decreased; brain levels at the peak ([3]; SQ injection at 10 mkd): ~190 ng/g; time of peak brain level after injection ([3]; SQ injection at 10 mkd): 4 h; brain levels with oral delivery compared to SQ ([3]; oral delivery, detectable from 1 to 6 hours): much lower; p-tau/tau ratios (SH-SY5Y cells [2]; 50 and 100 nM CRF, FIG. 28 panel C): highly significantly decreased; sAPPα (SH-SY5Y cells [2]; FIG. 28 panel D, significance for J03 at 100 nM CRF): trend for sAPPα to be higher; tau (SH-SY5Y cells [2]; absence of CRF and presence of 100 nM CRF, FIG. 28 panel A): trend to decrease; p-tau (SH-SY5Y cells [2]; presence and absence of CRF, FIG. 28 panel B): significantly reduced
